Measurements as given in the kinase profiling compilation of Christmann-Franck et al. (2016).
“And” between values parts separate entries of the source, which are not always exact repeats. Equal entries are not always repeated.

Legend:
Test in all cases: radiometric filter-binding kinase assay, Kinase HotSpot
Settings in all cases: compound 0.5 µM; ATP 10 µM
AKT1 (human) = AKT1 (human) (UniProt P31749)
MST1R (human) = MST1R (human) (UniProt Q04912)
[1] = system: ARAF (human), P10398 [Y301D/Y302D]
Sequence of ARAF (human), P10398 [Y301D/Y302D] (P10398 whole entry Y301D/Y302D, looked up): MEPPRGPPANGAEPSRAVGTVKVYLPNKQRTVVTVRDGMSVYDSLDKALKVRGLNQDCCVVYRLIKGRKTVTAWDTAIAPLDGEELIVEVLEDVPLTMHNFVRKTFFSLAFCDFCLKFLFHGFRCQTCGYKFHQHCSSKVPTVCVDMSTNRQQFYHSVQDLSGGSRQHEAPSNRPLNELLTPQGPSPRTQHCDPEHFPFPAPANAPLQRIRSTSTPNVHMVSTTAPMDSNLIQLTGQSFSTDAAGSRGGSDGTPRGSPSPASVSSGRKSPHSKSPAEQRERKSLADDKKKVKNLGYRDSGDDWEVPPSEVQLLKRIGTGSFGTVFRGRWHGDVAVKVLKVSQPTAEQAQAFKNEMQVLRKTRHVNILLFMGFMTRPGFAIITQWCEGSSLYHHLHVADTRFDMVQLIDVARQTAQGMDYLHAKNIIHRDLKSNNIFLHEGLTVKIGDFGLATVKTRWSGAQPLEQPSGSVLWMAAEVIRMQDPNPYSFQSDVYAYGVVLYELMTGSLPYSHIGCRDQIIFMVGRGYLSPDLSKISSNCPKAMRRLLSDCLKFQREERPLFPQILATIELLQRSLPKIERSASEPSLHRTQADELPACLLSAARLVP

TNK2 (human) = TNK2 (human) (UniProt Q07912)
STK16 (human) = STK16 (human) (UniProt O75716)
Sequence of STK16 (human) (O75716 whole entry, looked up): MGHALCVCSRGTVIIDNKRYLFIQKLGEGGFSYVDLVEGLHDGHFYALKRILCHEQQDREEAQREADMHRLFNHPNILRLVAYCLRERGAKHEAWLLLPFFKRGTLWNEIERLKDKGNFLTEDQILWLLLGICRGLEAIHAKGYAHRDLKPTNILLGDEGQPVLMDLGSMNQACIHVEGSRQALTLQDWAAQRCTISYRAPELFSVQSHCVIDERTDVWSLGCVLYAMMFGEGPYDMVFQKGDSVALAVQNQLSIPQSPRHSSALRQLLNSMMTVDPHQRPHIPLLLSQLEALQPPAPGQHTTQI

PAK7 (human) = PAK7 (human) (UniProt Q9P286)
CSNK2A2 (human) = CSNK2A2 (human) (UniProt P19784)
MAPKAPK2 (human) = MAPKAPK2 (human) (UniProt P49137)
NUAK2 (human) = NUAK2 (human) (UniProt Q9H093)
EGFR (human) = EGFR (human) (UniProt P00533)
PDGFRB (human) = PDGFRB (human) (UniProt P09619)
TAOK1 (human) = TAOK1 (human) (UniProt Q7L7X3)
PRKX (human) = PRKX (human) (UniProt P51817)
RPS6KA5 KD2 (human) = RPS6KA5 KD2 (human) (UniProt O75582)
Sequence of RPS6KA5 KD2 (human) (O75582 whole entry, looked up): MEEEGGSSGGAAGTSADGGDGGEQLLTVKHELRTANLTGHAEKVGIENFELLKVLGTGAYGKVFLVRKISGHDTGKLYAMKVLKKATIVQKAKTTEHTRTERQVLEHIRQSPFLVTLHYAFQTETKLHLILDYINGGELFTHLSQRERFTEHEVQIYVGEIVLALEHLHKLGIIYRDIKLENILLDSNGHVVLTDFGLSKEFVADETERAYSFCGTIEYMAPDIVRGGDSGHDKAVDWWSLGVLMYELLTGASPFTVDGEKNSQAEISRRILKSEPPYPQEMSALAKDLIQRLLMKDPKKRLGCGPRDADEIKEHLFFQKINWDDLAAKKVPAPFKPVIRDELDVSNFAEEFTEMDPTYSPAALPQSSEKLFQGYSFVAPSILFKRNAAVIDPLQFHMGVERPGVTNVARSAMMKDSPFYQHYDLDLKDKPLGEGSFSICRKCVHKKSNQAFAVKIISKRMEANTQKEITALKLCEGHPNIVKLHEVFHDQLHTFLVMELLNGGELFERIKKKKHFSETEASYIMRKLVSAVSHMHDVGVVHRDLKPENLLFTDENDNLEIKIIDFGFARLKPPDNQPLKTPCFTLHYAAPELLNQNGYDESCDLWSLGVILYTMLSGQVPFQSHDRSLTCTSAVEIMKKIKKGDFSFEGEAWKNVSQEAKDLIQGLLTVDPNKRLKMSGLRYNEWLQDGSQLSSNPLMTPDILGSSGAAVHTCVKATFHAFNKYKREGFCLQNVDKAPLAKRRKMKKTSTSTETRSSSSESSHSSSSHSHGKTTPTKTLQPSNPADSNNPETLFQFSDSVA

AURKC (human) = AURKC (human) (UniProt Q9UQB9)
Sequence of AURKC (human) (Q9UQB9 whole entry, looked up): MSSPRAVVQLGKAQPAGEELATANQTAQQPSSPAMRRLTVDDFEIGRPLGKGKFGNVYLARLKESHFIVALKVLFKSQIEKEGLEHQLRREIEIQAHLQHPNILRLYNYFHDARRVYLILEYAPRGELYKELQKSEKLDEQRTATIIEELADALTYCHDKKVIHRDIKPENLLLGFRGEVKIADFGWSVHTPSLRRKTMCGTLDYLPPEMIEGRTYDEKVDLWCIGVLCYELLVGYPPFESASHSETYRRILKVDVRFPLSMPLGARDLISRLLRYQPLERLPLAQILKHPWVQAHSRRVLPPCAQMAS

BRAF (human) = BRAF (human) (UniProt P15056)
MELK (human) = MELK (human) (UniProt Q14680)
TYRO3 (human) = TYRO3 (human) (UniProt Q06418)
CDK2 CCNE1 (human) = CDK2 CCNE1 (human) (UniProt P24941+P24864)
SIK2 (human) = SIK2 (human) (UniProt Q9H0K1)
PRKCB1 (human) = PRKCB1 (human) (UniProt P05771)
ERBB2 (human) = ERBB2 (human) (UniProt P04626)
OXSR1 (human) = OXSR1 (human) (UniProt O95747)
Sequence of OXSR1 (human) (O95747 whole entry, looked up): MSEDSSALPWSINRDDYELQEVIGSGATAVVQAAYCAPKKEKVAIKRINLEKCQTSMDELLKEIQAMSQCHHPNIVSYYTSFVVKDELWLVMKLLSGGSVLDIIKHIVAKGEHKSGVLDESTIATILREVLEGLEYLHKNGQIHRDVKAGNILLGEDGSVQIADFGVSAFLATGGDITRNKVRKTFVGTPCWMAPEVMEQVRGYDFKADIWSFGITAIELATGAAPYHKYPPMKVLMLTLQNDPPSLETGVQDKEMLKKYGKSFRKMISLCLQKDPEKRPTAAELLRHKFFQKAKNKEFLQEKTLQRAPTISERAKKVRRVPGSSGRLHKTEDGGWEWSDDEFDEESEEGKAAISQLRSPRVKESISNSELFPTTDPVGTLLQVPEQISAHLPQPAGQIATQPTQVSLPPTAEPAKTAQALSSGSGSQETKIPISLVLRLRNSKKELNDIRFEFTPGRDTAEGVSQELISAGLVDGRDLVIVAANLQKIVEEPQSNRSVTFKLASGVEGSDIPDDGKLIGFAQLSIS

CLK2 (human) = CLK2 (human) (UniProt P49760)
STK10 (human) = STK10 (human) (UniProt O94804)
Sequence of STK10 (human) (O94804 whole entry, looked up): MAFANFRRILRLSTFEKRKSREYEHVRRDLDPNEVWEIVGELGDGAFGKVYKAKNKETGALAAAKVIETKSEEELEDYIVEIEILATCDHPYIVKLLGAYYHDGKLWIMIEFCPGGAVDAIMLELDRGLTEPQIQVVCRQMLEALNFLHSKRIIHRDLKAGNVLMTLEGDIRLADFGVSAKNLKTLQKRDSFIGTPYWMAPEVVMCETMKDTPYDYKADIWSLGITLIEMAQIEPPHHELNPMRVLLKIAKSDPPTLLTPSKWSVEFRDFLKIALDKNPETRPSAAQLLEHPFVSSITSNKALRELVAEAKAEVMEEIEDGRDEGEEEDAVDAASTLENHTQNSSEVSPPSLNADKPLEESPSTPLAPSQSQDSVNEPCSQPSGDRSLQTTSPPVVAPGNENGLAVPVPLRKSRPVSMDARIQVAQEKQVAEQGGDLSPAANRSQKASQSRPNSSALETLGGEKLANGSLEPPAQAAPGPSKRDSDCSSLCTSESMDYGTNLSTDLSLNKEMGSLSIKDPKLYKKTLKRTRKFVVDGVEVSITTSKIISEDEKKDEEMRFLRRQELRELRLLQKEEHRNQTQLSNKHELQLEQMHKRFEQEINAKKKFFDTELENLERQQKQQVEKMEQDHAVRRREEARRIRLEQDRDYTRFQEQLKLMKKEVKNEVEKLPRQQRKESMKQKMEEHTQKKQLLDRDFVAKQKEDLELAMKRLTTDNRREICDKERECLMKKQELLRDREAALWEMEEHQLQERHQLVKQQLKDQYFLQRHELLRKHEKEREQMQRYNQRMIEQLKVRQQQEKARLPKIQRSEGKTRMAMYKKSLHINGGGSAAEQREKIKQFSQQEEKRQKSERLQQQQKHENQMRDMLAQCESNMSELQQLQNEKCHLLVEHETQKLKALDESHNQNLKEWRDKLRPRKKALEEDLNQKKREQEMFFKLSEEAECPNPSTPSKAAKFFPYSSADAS

CDK6 CCND1 (human) = CDK6 CCND1 (human) (UniProt Q00534+P24385)
Sequence of CDK6 CCND1 (human) (P24385 whole entry, looked up): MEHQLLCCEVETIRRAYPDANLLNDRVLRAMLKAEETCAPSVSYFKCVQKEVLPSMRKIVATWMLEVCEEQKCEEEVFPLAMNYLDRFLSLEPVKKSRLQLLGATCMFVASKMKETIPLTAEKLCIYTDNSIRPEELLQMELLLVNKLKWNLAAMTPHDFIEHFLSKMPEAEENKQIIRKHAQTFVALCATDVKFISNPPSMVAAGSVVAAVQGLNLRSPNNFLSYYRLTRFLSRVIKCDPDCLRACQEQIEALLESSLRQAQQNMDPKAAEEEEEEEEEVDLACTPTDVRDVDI
Sequence of CDK6 CCND1 (human) (Q00534 whole entry, looked up): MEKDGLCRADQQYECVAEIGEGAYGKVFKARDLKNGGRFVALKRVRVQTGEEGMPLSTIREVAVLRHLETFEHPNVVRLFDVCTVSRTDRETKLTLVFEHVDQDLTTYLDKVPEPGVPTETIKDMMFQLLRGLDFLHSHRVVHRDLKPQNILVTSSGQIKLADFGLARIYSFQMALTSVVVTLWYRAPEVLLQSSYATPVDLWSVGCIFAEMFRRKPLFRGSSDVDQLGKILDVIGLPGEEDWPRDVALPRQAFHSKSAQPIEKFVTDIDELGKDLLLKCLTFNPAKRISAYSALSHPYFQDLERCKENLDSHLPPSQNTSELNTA

MAPK3 (human) = MAPK3 (human) (UniProt P27361)
STK33 (human) = STK33 (human) (UniProt Q9BYT3)
Sequence of STK33 (human) (Q9BYT3 whole entry, looked up): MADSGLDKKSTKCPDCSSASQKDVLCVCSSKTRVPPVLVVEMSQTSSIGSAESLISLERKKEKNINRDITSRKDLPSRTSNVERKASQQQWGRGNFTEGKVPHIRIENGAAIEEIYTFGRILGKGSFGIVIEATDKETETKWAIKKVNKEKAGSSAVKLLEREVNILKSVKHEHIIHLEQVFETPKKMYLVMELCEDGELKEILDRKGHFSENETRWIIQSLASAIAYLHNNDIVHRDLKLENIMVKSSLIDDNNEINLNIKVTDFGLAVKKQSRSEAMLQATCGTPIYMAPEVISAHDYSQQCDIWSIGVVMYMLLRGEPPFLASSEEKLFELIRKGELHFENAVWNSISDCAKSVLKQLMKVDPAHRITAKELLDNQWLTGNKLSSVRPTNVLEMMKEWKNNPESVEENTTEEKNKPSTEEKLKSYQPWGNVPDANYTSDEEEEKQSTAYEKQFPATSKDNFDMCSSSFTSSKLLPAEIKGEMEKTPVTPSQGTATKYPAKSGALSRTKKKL

MAPK10 (human) = MAPK10 (human) (UniProt P53779)
PRKG1 (human) = PRKG1 (human) (UniProt Q13976)
MAP2K2 (human) = MAP2K2 (human) (UniProt P36507)
MAP3K8 (human) = MAP3K8 (human) (UniProt P41279)
HIPK3 (human) = HIPK3 (human) (UniProt Q9H422)
CSNK1A1 (human) = CSNK1A1 (human) (UniProt P48729)
Sequence of CSNK1A1 (human) (P48729 whole entry, looked up): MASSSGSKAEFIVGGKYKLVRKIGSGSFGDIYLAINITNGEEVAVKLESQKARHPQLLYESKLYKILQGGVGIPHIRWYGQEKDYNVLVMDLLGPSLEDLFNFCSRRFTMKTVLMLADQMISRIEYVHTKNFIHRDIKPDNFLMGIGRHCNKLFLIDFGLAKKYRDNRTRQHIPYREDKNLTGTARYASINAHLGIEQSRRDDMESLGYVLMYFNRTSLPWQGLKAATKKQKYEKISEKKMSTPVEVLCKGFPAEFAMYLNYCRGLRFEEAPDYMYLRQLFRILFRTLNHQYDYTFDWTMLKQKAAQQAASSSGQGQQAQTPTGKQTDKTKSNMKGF

PAK6 (human) = PAK6 (human) (UniProt Q9NQU5)
ABL1 (human) = ABL1 (human) (UniProt P00519)

Row | Structure (SMILES) | residual activity (AKT1 (human)) | residual activity (MST1R (human)) | residual activity [1] | residual activity (TNK2 (human)) | residual activity (STK16 (human)) | residual activity (PAK7 (human)) | residual activity (CSNK2A2 (human)) | residual activity (MAPKAPK2 (human)) | residual activity (NUAK2 (human)) | residual activity (EGFR (human)) | residual activity (TAOK1 (human)) | residual activity (PRKX (human)) | residual activity (RPS6KA5 KD2 (human)) | residual activity (AURKC (human)) | residual activity (BRAF (human)) | residual activity (MELK (human)) | residual activity (CDK2 CCNE1 (human)) | residual activity (SIK2 (human)) | residual activity (PRKCB1 (human)) | residual activity (ERBB2 (human)) | other results
1 | Nc1nc(Nc2ccc(S(N)(=O)=O)cc2)nn1C(=O)c1c(F)cccc1F | 120% | 115% | 93.1% | 68% | 48.5% | 85.4% | 97.5% | 95.8% | 34% | 97% | 18.8% | 89% | 97.2% | 28.3% | 55% | 87.2% | 7.15% | 84.1% | 88.2% | 91.1% | residual activity (PDGFRB (human)): 89.1%; residual activity (TYRO3 (human)): 98.6%; residual activity (OXSR1 (human)): 88.8%; residual activity (CLK2 (human)): 71.5%; residual activity (STK10 (human)): 17%; residual activity (CDK6 CCND1 (human)): 17.1%; residual activity (MAPK3 (human)): 108%; residual activity (STK33 (human)): 74.4%; residual activity (MAPK10 (human)): 100%; residual activity (PRKG1 (human)): 104% and 86.1%; residual activity (MAP2K2 (human)): 85.6%; residual activity (MAP3K8 (human)): 94.4%; residual activity (HIPK3 (human)): 91.2%; residual activity (CSNK1A1 (human)): 95.1%; residual activity (PAK6 (human)): 101%
2 | CC(C)(C)c1nc2c3ccc(F)cc3c3c(=O)[nH]ccc3c2[nH]1 | 86.8% | 103% | 122% | 4.36% | 90.1% | 90.5% | 91.5% | 99.6% | 66% | 94.8% | 86.9% | 79.2% | 58% | 29.3% | 117% | 5.23% | 87.5% | 60.2% | 91.5% | 109% | residual activity (TYRO3 (human)): 90.3%; residual activity (ABL1 (human)): 98.4%; residual activity (OXSR1 (human)): 100%; residual activity (CLK2 (human)): 93.9%; residual activity (STK10 (human)): 72.6%; residual activity (CDK6 CCND1 (human)): 87.7%; residual activity (MAPK3 (human)): 85.7%; residual activity (STK33 (human)): 53.8%; residual activity (MAPK10 (human)): 107%; residual activity (PRKG1 (human)): 40.2% and 52.3%; residual activity (MAP2K2 (human)): 82.1%; residual activity (MAP3K8 (human)): 128%; residual activity (HIPK3 (human)): 78.6%; residual activity (CSNK1A1 (human)): 94.6%; residual activity (PAK6 (human)): 90.9%
3 | Nc1n[nH]c2nnc(-c3c(-c4ccccc4)nn4ccccc34)cc12 | 98% | 102% | 98.4% | 82.7% | 108% | 98.2% | 93.4% | 105% | 87.3% | 83.9% | 95.8% | 101% | 101% | 96.4% | 95.7% | 102% | 101% | 93.6% | 96.5% | 105% | residual activity (PDGFRB (human)): 114%; residual activity (TYRO3 (human)): 97.6%; residual activity (ABL1 (human)): 83.3%; residual activity (OXSR1 (human)): 102%; residual activity (CLK2 (human)): 94.9%; residual activity (STK10 (human)): 70.9%; residual activity (CDK6 CCND1 (human)): 100%; residual activity (MAPK3 (human)): 65.8%; residual activity (STK33 (human)): 100%; residual activity (MAPK10 (human)): 103%; residual activity (PRKG1 (human)): 89.5% and 93.6%; residual activity (MAP2K2 (human)): 99.4%; residual activity (MAP3K8 (human)): 95%; residual activity (HIPK3 (human)): 95.3%; residual activity (CSNK1A1 (human)): 100%; residual activity (PAK6 (human)): 96.4%
4 | CCN1/C(=C/C(C)=O)Sc2ccc(OC)cc21 | 90.1% | 94.5% | 128% | 102% | 87.4% | 84.7% | 89.7% | 94.6% | 107% | 99.1% | 92.4% | 96.6% | 87.4% | 94.8% | 95.3% | 94.6% | 87.7% | 116% | 99.4% | 99.9% | residual activity (PDGFRB (human)): 107%; residual activity (ABL1 (human)): 92.9%; residual activity (OXSR1 (human)): 93.5%; residual activity (CLK2 (human)): 25.9%; residual activity (STK10 (human)): 96.8%; residual activity (CDK6 CCND1 (human)): 108%; residual activity (MAPK3 (human)): 105%; residual activity (STK33 (human)): 57.4%; residual activity (MAPK10 (human)): 102%; residual activity (PRKG1 (human)): 82.4% and 87%; residual activity (MAP2K2 (human)): 86.4%; residual activity (MAP3K8 (human)): 103%; residual activity (HIPK3 (human)): 100%; residual activity (CSNK1A1 (human)): 53%; residual activity (PAK6 (human)): 95.6%
5 | CC(C)n1cnc2c(Nc3cccc(Cl)c3)nc(NCCO)nc21 | 103% | 101% | 107% | 70.8% | 89.8% | 80.4% | 91.8% | 98.9% | 89.8% | 91.5% | 94.4% | 96.4% | 87% | 92.1% | 97% | 59.7% | 37.2% | 107% | 102% | 96.2% | residual activity (PDGFRB (human)): 94.7%; residual activity (TYRO3 (human)): 92.7%; residual activity (ABL1 (human)): 73.3%; residual activity (OXSR1 (human)): 97.7%; residual activity (CLK2 (human)): 25%; residual activity (STK10 (human)): 86.9%; residual activity (CDK6 CCND1 (human)): 95.5%; residual activity (MAPK3 (human)): 111%; residual activity (STK33 (human)): 68.1%; residual activity (MAPK10 (human)): 101%; residual activity (PRKG1 (human)): 92.2% and 98.1%; residual activity (MAP2K2 (human)): 97.6%; residual activity (MAP3K8 (human)): 92.2%; residual activity (HIPK3 (human)): 99.9%; residual activity (CSNK1A1 (human)): 62.3%
